These results are taken from patent US8586579B2, “Anellated pyridine compounds” (Hoffmann-La Roche Inc., priority 2010, dated 2013).

The target of data set [1] is human 5-HT2A receptor (Homo sapiens (Human), UniProt P28223). Briefly: Radioligand binding assay, [3H]-ketanserin, human 5-HT2A receptor. The following applies: membranes of HEK293 EBNA cells expressing human 5-HT2A; 1.1 nM [3H]-ketanserin. How it is done:
(§1) HEK293 EBNA cells were transiently transfected with expression plasmids encoding for the human D2 or D3 or for the human 5-HT2A receptor, respectively. The cells were harvested 48 h post-transfection, washed three times with cold PBS and stored at −80° C. prior to use. The pellet was suspended in cold 50 mM Tris-HCl buffer comprising 10 mM EDTA (pH 7.4) and was homogenized with a Polytron (Kinematica AG, Basel, Switzerland) for 20-30 sec at 12.000 rpm. After centrifugation at 48.000×g for 30 min at 4° C., the pellet was resuspended in cold 10 mM Tris-HCl buffer comprising 0.1 mM EDTA (pH 7.4), homogenized, and centrifuged as above. This pellet was further resuspended in a smaller volume of ice cold 10 mM Tris-HCl buffer comprising 0.1 mM EDTA (pH 7.4) and homogenized with a Polytron for 20-30 sec at 12.000 rpm. The protein content of this homogenate was determined with the Bio-Rad (Bradford) Protein Assay (Biorad Laboratories GmbH, München, Germany) according to the instructions of the manufacturer using gamma globulin as the standard. This homogenate was stored at −80° C. in aliquots and thawed immediately prior to use.
(§2) Aliquots of membrane preparations were thawed at RT, resuspended in assay buffer (D2, D3: 50 mM Tris-HCl, 120 mM NaCl, 5 mM MgCl2, 1 mM EDTA, 5 mM KCl, 1.5 mM CaCl2, pH=7.4; 5-HT2A: 50 mM Tris-HCl, 10 mM MgCl2, 1 mM EGTA, pH=7.4), homogenized with a Polytron for 20-30 sec at 12.000 rpm and adjusted to a final concentration of approximately 7.5 μg protein/well (D2, D3) and 15 μg protein/well (5-HT2A), respectively.
(§3) The binding affinity (Ki) of the compounds was determined using radioligand binding. Membranes were incubated in a total volume of 200 μl with a fixed concentration of radioligand (final concentration approximately 0.7 nM [^3H]-spiperone for D2, 0.5 nM [^3H]-spiperone for D3, and 1.1 nM [^3H]-ketanserin for 5-HT2A) and ten concentrations of test compound in ranging between 10 μM-0.1 nM for 1 h at RT. […] The nonspecific binding was determined with equally composed reaction mixtures in the presence of 10 μM unlabelled spiperone. Per well 45 μl of Microscint 40 (Perkin Elmer, Schwerzenbach, Switzerland) was added, plates for sealed, shaken for 20 min and counted for 3 min on a Topcount Microplate Scintillation Counter (Can berra Packard SA, Zürich, Switzerland) with quenching correction.
(§4) The CPM value for each duplicate of a concentration of competing compound was averaged (y1), then the % specific binding was calculated according to the equation (((y1−non-specific)/(total binding−non-specific))×100). Graphs were plotted with the % specific binding using XLfit, a curve fitting program that iteratively plots the data using Levenberg-Marquardt algorithm. The single site competition analysis equation used was y=A+((B−A)/(1+((x/C)D))), where y is the % specific binding, A is the minimum y, B is the maximum y, C is the IC50, x is the log 10 of the concentration of the competing compound and D is the slope of the curve (the Hill Coefficient). […] The affinity constant (K) was calculated using the Cheng-Prusoff equation Ki=(IC50/1+([L]/Kd), where [L] is the concentration of radioligand and Kd is the dissociation constant of the radioligand at the receptor as determined by the saturation isotherm.

Data set [2] concerns the target human D2 receptor (Homo sapiens (Human), UniProt P14416). Briefly: Radioligand binding assay, [3H]-spiperone, human D2 receptor. The following applies: membranes of HEK293 EBNA cells expressing human D2; 0.7 nM [3H]-spiperone. On the procedure: as §1, §2, §3
as §4, with “algorithm.” for “algorithm. The single site competition analysis equation used was y=A+((B−A)/(1+((x/C)D))), where y is the % specific binding, A is the minimum y, B is the maximum y, C is the IC50, x is the log 10 of the concentration of the competing compound and D is the slope of the curve (the Hill Coefficient).”

Data set [3] deals with human D3 receptor (Homo sapiens (Human), UniProt P35462). Briefly: Radioligand binding assay, [3H]-spiperone, human D3 receptor. As to conditions: membranes of HEK293 EBNA cells expressing human D3; 0.5 nM [3H]-spiperone. How it is done:
as §1, §2, §3, §4

Sequence of human D3 receptor (P35462 whole entry): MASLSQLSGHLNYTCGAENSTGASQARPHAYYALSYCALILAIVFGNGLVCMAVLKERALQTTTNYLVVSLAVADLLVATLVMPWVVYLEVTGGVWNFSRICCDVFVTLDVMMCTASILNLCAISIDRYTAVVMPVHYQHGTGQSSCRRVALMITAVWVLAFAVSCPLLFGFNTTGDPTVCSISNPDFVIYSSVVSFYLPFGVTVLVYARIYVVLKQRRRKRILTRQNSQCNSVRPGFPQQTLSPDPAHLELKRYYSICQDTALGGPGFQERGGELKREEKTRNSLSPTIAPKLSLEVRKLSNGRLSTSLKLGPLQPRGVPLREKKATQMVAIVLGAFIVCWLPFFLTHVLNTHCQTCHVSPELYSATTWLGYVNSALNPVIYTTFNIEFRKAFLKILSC
Sequence of human D2 receptor (P14416 whole entry): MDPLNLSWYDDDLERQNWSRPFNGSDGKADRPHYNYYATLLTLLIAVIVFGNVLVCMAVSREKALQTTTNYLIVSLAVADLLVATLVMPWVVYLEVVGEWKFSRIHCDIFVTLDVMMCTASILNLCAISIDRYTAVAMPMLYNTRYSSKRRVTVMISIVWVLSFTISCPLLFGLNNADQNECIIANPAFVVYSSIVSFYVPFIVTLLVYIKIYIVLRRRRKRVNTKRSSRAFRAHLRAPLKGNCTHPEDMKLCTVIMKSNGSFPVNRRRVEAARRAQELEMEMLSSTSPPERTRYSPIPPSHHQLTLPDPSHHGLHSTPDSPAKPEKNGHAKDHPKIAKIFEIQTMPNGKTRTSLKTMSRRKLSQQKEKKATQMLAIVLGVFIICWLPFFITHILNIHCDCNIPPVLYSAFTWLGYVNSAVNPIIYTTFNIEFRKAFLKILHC
Sequence of human 5-HT2A receptor (P28223 whole entry): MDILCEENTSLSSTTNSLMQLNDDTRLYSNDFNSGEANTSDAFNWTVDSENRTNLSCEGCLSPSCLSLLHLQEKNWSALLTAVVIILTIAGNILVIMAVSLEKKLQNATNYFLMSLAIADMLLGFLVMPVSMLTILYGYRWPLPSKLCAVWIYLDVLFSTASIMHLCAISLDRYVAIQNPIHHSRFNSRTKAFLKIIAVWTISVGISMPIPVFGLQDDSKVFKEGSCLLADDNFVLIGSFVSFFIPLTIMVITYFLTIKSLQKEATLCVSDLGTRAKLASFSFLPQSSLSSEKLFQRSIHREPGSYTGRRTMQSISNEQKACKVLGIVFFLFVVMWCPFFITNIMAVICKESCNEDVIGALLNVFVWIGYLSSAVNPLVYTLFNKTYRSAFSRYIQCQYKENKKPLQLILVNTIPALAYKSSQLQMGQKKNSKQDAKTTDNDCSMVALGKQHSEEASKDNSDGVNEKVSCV

As a reminder, the Ki is the equilibrium dissociation constant of an inhibitor or competing ligand from its target. As a reminder, the melting point is the temperature, or range, at which the solid turns liquid. Take `O=C(CC1COCCO1)N[C@H]1CC[C@H](CCN2CCN(c3nccc4c3CCO4)CC2)CC1` (mixture of isomers) [Example 37, trans-N-(4-{2-[4-(2,3-Dihydrofuro[3,2-c]pyridin-4-yl)-piperazin-1-yl]-ethyl}-cyclohexyl)-2-(rac-1,4-dioxan-2-yl)-acetamide]: the melting point amounted to 186 °C. In addition, in data set [1], the Ki was found to be 9.7 nM. Further, in data set [2], the Ki was determined as 1470 nM.
In the case of `O=C(N[C@H]1CC[C@H](CCN2CCN(c3nccc4c3CCO4)CC2)CC1)C1CCOC1` (mixture of isomers) [Example 42, trans-N-(4-{2-[4-(2,3-Dihydrofuro[3,2-c]pyridin-4-yl)-piperazin-1-yl]-ethyl}-cyclohexyl)-rac-tetrahydrofuran-3-carboxamide], the melting point was found to be 208.5 °C. The inhibition constant Ki in data set [1] was 9.9 nM. Moreover, the Ki in data set [3] came to 18.2 nM. Moreover, the Ki in data set [2] turned out to be 609 nM.
Take `O=C(N[C@H]1CC[C@H](CCN2CCN(c3nccc4c3CCO4)CC2)CC1)C1CCCO1` (mixture of isomers) [Example 43, trans-N-(4-{2-[4-(2,3-Dihydrofuro[3,2-c]pyridin-4-yl)-piperazin-1-yl]-ethyl}-cyclohexyl)-rac-tetrahydrofuran-2-carboxamide]: the melting point worked out at 176.5 °C. The Ki in data set [1] was 6.3 nM.
In turn, `O=C(N[C@H]1CC[C@H](CCN2CCN(c3nccc4c3CCO4)CC2)CC1)C1CCCOC1` (mixture of isomers) [Example 53, rac-Tetrahydro-pyran-3-carboxylic acid trans-(4-{2-[4-(2,3-dihydro-furo[3,2-c]pyridin-4-yl)-piperazin-1-yl]-ethyl}-cyclohexyl)-amide] yielded a melting point of 216 °C. For the same compound, in data set [3], the Ki is 28.8 nM.
In turn, `O=C(CC1CCCO1)N[C@H]1CC[C@H](CCN2CCN(c3nccc4c3CCO4)CC2)CC1` (mixture of isomers) [Example 64, trans-N-(4-{2-[4-(2,3-Dihydro-furo[3,2-c]pyridin-4-yl)-piperazin-1-yl]-ethyl}-cyclohexyl)-2-rac-(tetrahydro-furan-2-yl)-acetamide] returned a melting point of 181.5 °C. Also, the Ki in data set [1] was found to be 16.7 nM. Moreover, the Ki in data set [3] was found to be 24.2 nM. In addition, in data set [2], the Ki was found to be 1260 nM.
In the same order, the values of `CCC(C)C(=O)N[C@H]1CC[C@H](CCN2CCN(c3nccc4c3CCO4)CC2)CC1` (mixture of isomers) [Example 76, trans-N-(4-{2-[4-(2,3-Dihydro-furo[3,2-c]pyridin-4-yl)-piperazin-1-yl]-ethyl}-cyclohexyl)-rac-2-methyl-butyramide] are 205.5 °C, 13.2 nM, 25.4 nM and 709 nM.
For `O=C(N[C@H]1CC[C@H](CCN2CCN(c3nccc4c3CCO4)CC2)CC1)C(O)C(F)(F)F` (mixture of isomers) [Example 112, trans-(RS)—N-(4-{2-[4-(2,3-Dihydro-furo[3,2-c]pyridin-4-yl)-piperazin-1-yl]-ethyl}-cyclohexyl)-3,3,3-trifluoro-2-hydroxy-propionamide], the melting point came to 204 °C. The Ki in data set [3] came out at 37.9 nM.
For `O=C(CC1C[C@H](O)CO1)N[C@H]1CC[C@H](CCN2CCN(c3nccc4c3CCO4)CC2)CC1` (stereo in doubt) [Example 91, trans-N-(4-{2-[4-(2,3-Dihydro-furo[3,2-c]pyridin-4-yl)-piperazin-1-yl]-ethyl}-cyclohexyl)-2-((S)-4-hydroxy-tetrahydro-furan-2-yl)-acetamide], the melting point came out at 155 °C. For the same compound, in data set [1], the Ki was 22.5 nM. The Ki in data set [3] turned out to be 14.2 nM. Also, the inhibitory constant (Ki) in data set [2] came out at 926 nM.
With `CS(=O)(=O)N[C@H]1CC[C@H](CCN2CCN(c3nccc4sccc34)CC2)CC1` [Example 30, N-{trans-4-[2-(4-Thieno[3,2-c]pyridin-4-yl-piperazin-1-yl)-ethyl]-cyclohexyl}-methanesulfonamide], the inhibition constant Ki in data set [1] amounted to 2.9 nM; in data set [3], 4.3 nM; in data set [2], 265 nM.
For `CCS(=O)(=O)N[C@H]1CC[C@H](CCN2CCN(c3nccc4sccc34)CC2)CC1` [Example 31, Ethanesulfonic acid {trans-4-[2-(4-thieno[3,2-c]pyridin-4-yl-piperazin-1-yl)-ethyl]-cyclohexyl}-amide], the Ki turned out to be 2.9 nM in data set [1], 4.3 nM in data set [3] and 217 nM in data set [2].
As to `CC(=O)N[C@H]1CC[C@H](CCN2CCN(c3nccc4c3CCO4)CC2)CC1` [Example 32, trans-N-(4-{2-[4-(2,3-Dihydro-furo[3,2-c]pyridin-4-yl)-piperazin-1-yl]-ethyl}-cyclohexyl)-acetamide], the melting point came out at 260 °C. In data set [1], the Ki was found to be 22.9 nM. Further, the Ki in data set [3] turned out to be 12.7 nM. In addition, the Ki in data set [2] was found to be 770 nM.
On to `O=C(N[C@H]1CC[C@H](CCN2CCN(c3nccc4c3CCO4)CC2)CC1)C1CCOCC1` [Example 33, trans-N-(4-{2-[4-(2,3-Dihydrofuro[3,2-c]pyridin-4-yl)-piperazin-1-yl]-ethyl}-cyclohexyl)-tetrahydro-2H-pyran-4-carboxamide], for which the melting point was determined as 263 °C. The Ki in data set [1] turned out to be 5.9 nM. Also, the Ki in data set [3] stood at 38.2 nM. For the same compound, the Ki in data set [2] was 504 nM.
For the compound `O=C(C[C@@H]1COCCO1)N[C@H]1CC[C@H](CCN2CCN(c3nccc4c3CCO4)CC2)CC1` [Example 61, trans-N-(4-{2-[4-(2,3-Dihydro-furo[3,2-c]pyridin-4-yl)-piperazin-1-yl]-ethyl}-cyclohexyl)-2-(R)-[1,4]dioxan-2-yl-acetamide], the melting point was 193.5 °C. Also, in data set [1], the Ki is 11.8 nM. Besides, the Ki in data set [2] came out at 1120 nM.
Compound `O=C(N[C@H]1CC[C@H](CCN2CCN(c3nccc4c3CCO4)CC2)CC1)c1ccnc2ccccc12` [Example 62, Quinoline-4-carboxylic acid trans-(4-{2-[4-(2,3-dihydro-furo[3,2-c]pyridin-4-yl)-piperazin-1-yl]-ethyl}-cyclohexyl)-amide] had a melting point of 210 °C. Also, in data set [1], the Ki was 3.62 nM. Also, the Ki in data set [3] worked out at 10.7 nM.
In turn, `O=C(C[C@H]1COCCO1)N[C@H]1CC[C@H](CCN2CCN(c3nccc4c3CCO4)CC2)CC1` [Example 67, trans-N-(4-{2-[4-(2,3-Dihydro-furo[3,2-c]pyridin-4-yl)-piperazin-1-yl]-ethyl}-cyclohexyl)-2-(S)-[1,4]dioxan-2-yl-acetamide] gave a melting point of 192 °C. In addition, the Ki in data set [1] worked out at 8.15 nM. In addition, in data set [2], the Ki came out at 1460 nM.
`O=C(N[C@H]1CC[C@H](CCN2CCN(c3nccc4c3CCO4)CC2)CC1)c1ccc(Cl)cc1Cl` [Example 132, trans-2,4-Dichloro-N-(4-{2-[4-(2,3-dihydro-furo[3,2-c]pyridin-4-yl)-piperazin-1-yl]-ethyl}-cyclohexyl)-benzamide] returned a melting point of 203.5 °C. For the same compound, in data set [1], the Ki worked out at 21.7 nM. For the same compound, the Ki in data set [3] was 26.7 nM.
